Measured values as given in PubChem BioAssay AID1963843 (Molecular Pharmacology Branch, DTP, NCI, 2024).
Where “and” joins values, the source holds several entries; their conditions need not be identical. Equal entries are not always repeated.

Tested on: 616215-338-R-J1-PDC complex spheroid viability
Test: Anticancer human tumor 616215-338-R-J1-PDC patient-derived colon adenocarcinoma cell line growth inhibition [POLQ]
Details: for viability, T/C: stronger effect = lower value; active = viability on the fitted dose curve at most 10% of control; inactive = the rest
Protocol: Multicellular complex tumor spheroid response to Polymerase (POL) inhibitors (novobiocin, ART-558, RP6685) in combination with a variety of drugs and investigational agents in selected tumor cell lines
The POL inhibitors (novobiocin, ART-558, and RP6685) were evaluated both individually and in combination with standard of care and investigational anticancer small molecules within a complex spheroid model of solid tumors. . Complex spheroids include a stromal component modeled by human endothelial cells (HUVEC) and fibroblasts modeled by human mesenchymal stem cells (MSCs). The concentration ranges selected for each drug and investigational agent were based upon clinically achievable concentrations if the clinical Cmax of the agent was known.
Compounds. The drugs and investigational agents: novobiocin (NSC847541), ART-558 (NSC835418), RP-6685 (NSC848927), peposertib (NSC802822), ceralasertib (NSC780249), elimusertib (NSC800525), camonsertib (NSC841442), AZD-1390 (NSC803789), olaparib (NSC753686), talazoparib (NSC767125), rucaparib (NSC756644), sotorasib (NSC818433), MRTX-1133 (NSC836407), SN-38 (NSC673596), topotecan (NSC609699), epotoside (NSC141540), doxorubicin (NSC123127), gemcitabine (NSC613327), 5-fluorouracil (NSC19893), paclitaxel (NSC125973), vemurafenib (NSC761431), MSA-2 (NSC828583), SN-011 (NSC837082), adavosertib (NSC754352), prexasertib (NSC758257), carboplatin (NSC241240) and oxaliplatin (NSC266046), were obtained from the National Cancer Institute (NCI) Developmental Therapeutics Program Chemical Repository (21). The FDA-approved anticancer drug set is available from the Developmental Therapeutics Program at https://dtp.cancer.gov/organization/dscb/obtaining/. […] The stock solutions were prepared in dimethyl sulfoxide (DMSO, Sigma-Aldrich, St. Louis, MO, cat. D2650), except for the platinum compounds which were prepared in saline (Quality Biological, Gaithersburg, MD, cat. 114-055-101), at 800-fold the tested concentration and stored at -70 degrees C prior to their use. All drugs and investigational agents were tested over a range starting from a high concentration at or near the clinical Cmax and decreasing in half-log increments. If the clinical Cmax for an agent had not been determined, the highest concentration tested was 10 microM, except for SN-38, which was tested at a high concentration of 1 microM.
Cell Culture. All cells were maintained in an incubator at 37 degrees C and 5% CO2 with 95% humidity. The PDC lines were cultured according to standard operating procedures established by the NCI PDMR (https://pdmr.cancer.gov). Table 3 of the manuscript, lists the cell lines along with the number of the three cell types plated to form the mct-spheroids and media for tumor cell growth. After thawing, all PDC lines, except 997537-175-T-J1-PDC and 415267-285-R-J2-PDC, were cultured in Matrigel-coated flasks prepared with a working solution of 1X Ham's F-12 nutrient mix, without supplementation (Thermo Fisher Scientific, cat. 11765054), 100 U/mL penicillin-streptomycin (Thermo Fisher Scientific, cat. 15140122), and 2.5% Matrigel (Corning Inc., Corning, NY, cat. 354248) for the first three passages. The two PDC lines 997537-175-T-J1-PDC and 415267-285-R-J2-PDC were cultured on uncoated flasks. The 857933-349-R-J2-PDC line was cultured in 6C/Colon 1B media containing advanced DMEM/F-12 (Thermo Fisher Scientific, cat. 12634028), 10 mM HEPES (Thermo Fisher Scientific, cat. 15630080), 1X GlutaMAX supplement (Thermo Fisher Scientific, cat. 35050061), 0.1 mg/mL primocin (InvivoGen, San Diego, CA, cat. ant-pm-2), 10% defined fetal bovine serum, heat inactivated (HyClone Laboratories Inc., Logan, UT, cat. SH30070.03HI), 50% L-WRN conditioned media (ATCC, cat. CRL-3276), 1.25 mM N-Acetyl-L-cysteine (Sigma-Aldrich, cat. A9165), 10 mM nicotinamide (Sigma-Aldrich, cat. N0636), 1X B-27 supplement (Thermo Fisher Scientific, cat. 17504044), 1X N-2 supplement (Thermo Fisher Scientific, cat. […]

[1] = curve of first compound, second compound 0.0316 µM
[2] = curve of first compound, second compound 0.1 µM
[3] = curve of first compound, second compound 0.316 µM
[4] = curve of first compound, second compound 1 µM
[5] = curve of first compound, second compound 3.16 µM
[6] = curve of first compound, second compound 10 µM
[7] = second compound 0.0316 µM, first compound 0.0316 µM
[8] = second compound 0.0316 µM, first compound 0.1 µM
[9] = second compound 0.0316 µM, first compound 0.316 µM
[10] = second compound 0.0316 µM, first compound 1 µM
[11] = second compound 0.0316 µM, first compound 3.16 µM
[12] = second compound 0.0316 µM, first compound 10 µM
[13] = second compound 0.1 µM, first compound 0.0316 µM
[14] = second compound 0.1 µM, first compound 0.1 µM
[15] = second compound 0.1 µM, first compound 0.316 µM
[16] = second compound 0.1 µM, first compound 1 µM
[17] = second compound 0.1 µM, first compound 3.16 µM
[18] = second compound 0.1 µM, first compound 10 µM
[19] = second compound 0.316 µM, first compound 0.0316 µM
[20] = second compound 0.316 µM, first compound 0.1 µM
[21] = second compound 0.316 µM, first compound 0.316 µM
[22] = second compound 0.316 µM, first compound 1 µM
[23] = second compound 0.316 µM, first compound 3.16 µM
[24] = second compound 0.316 µM, first compound 10 µM
[25] = second compound 1 µM, first compound 0.0316 µM
[26] = second compound 1 µM, first compound 0.1 µM
[27] = second compound 1 µM, first compound 0.316 µM
[28] = second compound 1 µM, first compound 1 µM
[29] = second compound 1 µM, first compound 3.16 µM
[30] = second compound 1 µM, first compound 10 µM
[31] = second compound 3.16 µM, first compound 0.0316 µM
[32] = second compound 3.16 µM, first compound 0.1 µM
[33] = second compound 3.16 µM, first compound 0.316 µM
[34] = second compound 3.16 µM, first compound 1 µM
[35] = second compound 3.16 µM, first compound 3.16 µM
[36] = second compound 3.16 µM, first compound 10 µM
[37] = second compound 10 µM, first compound 0.0316 µM
[38] = second compound 10 µM, first compound 0.1 µM
[39] = second compound 10 µM, first compound 0.316 µM
[40] = second compound 10 µM, first compound 1 µM
[41] = second compound 10 µM, first compound 3.16 µM
[42] = second compound 10 µM, first compound 10 µM
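Note: spheroids exposed to compounds for one week before readout.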
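Throughout, for viability, T/C: percent viability relative to DMSO vehicle wells taken as 100%.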

CC1COCCN1c1cc(-c2ccnn2C)c2ccnc(-c3ccn[nH]3)c2n1 (stereo not given) + Cc1cccc(N(C)C(=O)C2C(O)CCN2c2nc(C)cc(C(F)(F)F)c2C#N)c1
1.99 µM: IC50 [5]
2.79 µM: IC50 [4]
1.24 µM: IC50 [6]
inactive: viability, T/C [7] 104% | viability, T/C [8] 110% | viability, T/C [9] 76.7% | viability, T/C [10] 66.2% | viability, T/C [11] 49.4% | viability, T/C [12] 50.6% | viability, T/C [13] 103% | viability, T/C [14] 100% | viability, T/C [15] 69.5% | viability, T/C [16] 61.8% | viability, T/C [17] 50.1% | viability, T/C [18] 50.5% | viability, T/C [19] 107% | viability, T/C [20] 91.1% | viability, T/C [21] 66.3% | viability, T/C [22] 57.4% | viability, T/C [23] 52.4% | viability, T/C [24] 53% | viability, T/C [25] 101% | viability, T/C [26] 91% | viability, T/C [27] 71.9% | viability, T/C [28] 57.1% | viability, T/C [29] 53% | viability, T/C [30] 40.8% | viability, T/C [31] 114% | viability, T/C [32] 95.2% | viability, T/C [33] 72.2% | viability, T/C [34] 54% | viability, T/C [35] 44.1% | viability, T/C [36] 47.9% | viability, T/C [37] 111% | viability, T/C [38] 90.6% | viability, T/C [39] 68% | viability, T/C [40] 49.2% | viability, T/C [41] 47.5% | viability, T/C [42] 36.8%
> 10 µM: IC50 [1] | IC50 [2] | IC50 [3]

COc1cccc(OCCCN)c1-c1cc(Nc2cnc(C#N)cn2)n[nH]1
inactive: viability, T/C (compound 0.00316 µM) 95.5% and 106% and 104% | viability, T/C (compound 0.01 µM) 101% and 98.7% and 97.4% | viability, T/C (compound 0.0316 µM) 88.6% and 68.9% and 76.7% | viability, T/C (compound 0.1 µM) 86.1% and 63.8% and 55.3% | viability, T/C (compound 0.316 µM) 64.6% and 33.6% and 49.9% | viability, T/C (compound 1 µM) 55.9% and 30.1% and 34.7%
> 1 µM and 0.15 µM and 0.201 µM: IC50 (curve of compound)

CC1COCCN1c1cc(C2(S(C)(=N)=O)CC2)nc(-c2ccnc3[nH]ccc23)n1 (stereo not given) + COC1C(OC(N)=O)C(O)C(Oc2ccc3c(O)c(NC(=O)c4ccc(O)c(CC=C(C)C)c4)c(=O)oc3c2C)OC1(C)C
> 10 µM: IC50 [1] | IC50 [2] | IC50 [3] | IC50 [4] | IC50 [5] | IC50 [6]
inactive: viability, T/C [7] 93.8% | viability, T/C [8] 104% | viability, T/C [9] 100% | viability, T/C [10] 98.5% | viability, T/C [11] 98.5% | viability, T/C [12] 67.1% | viability, T/C [13] 98.2% | viability, T/C [14] 91.7% | viability, T/C [15] 101% | viability, T/C [16] 96.6% | viability, T/C [17] 92.3% | viability, T/C [18] 73.9% | viability, T/C [19] 97.7% | viability, T/C [20] 103% | viability, T/C [21] 105% | viability, T/C [22] 95.5% | viability, T/C [23] 97.2% | viability, T/C [24] 65.1% | viability, T/C [25] 99.3% | viability, T/C [26] 99.1% | viability, T/C [27] 108% | viability, T/C [28] 104% | viability, T/C [29] 94.2% | viability, T/C [30] 63.9% | viability, T/C [31] 107% | viability, T/C [32] 100% | viability, T/C [33] 108% | viability, T/C [34] 94% | viability, T/C [35] 94.5% | viability, T/C [36] 60.6% | viability, T/C [37] 96.8% | viability, T/C [38] 95.3% | viability, T/C [39] 100% | viability, T/C [40] 98.6% | viability, T/C [41] 98.7% | viability, T/C [42] 61.8%

CC1COCCN1c1cc(C2(S(C)(=N)=O)CC2)nc(-c2ccnc3[nH]ccc23)n1 (stereo not given)
> 10 µM and 7.18 µM: IC50 (curve of compound)
inactive: viability, T/C (compound 0.0316 µM) 99.9% and 97.9% and 100% | viability, T/C (compound 0.1 µM) 107% and 90.8% and 112% | viability, T/C (compound 0.316 µM) 95.8% and 93.9% and 108% | viability, T/C (compound 1 µM) 99.2% and 99.4% and 95.3% | viability, T/C (compound 3.16 µM) 99% and 74.6% and 107% | viability, T/C (compound 10 µM) 71.5% and 39.9% and 74.1%

O=C(c1cc(Cc2n[nH]c(=O)c3ccccc23)ccc1F)N1CCN(C(=O)C2CC2)CC1
inactive: viability, T/C (compound 0.0316 µM) 89.5% and 67.6% and 97.3% | viability, T/C (compound 0.1 µM) 103% and 72.8% and 110% | viability, T/C (compound 0.316 µM) 102% and 71.6% and 106% | viability, T/C (compound 1 µM) 101% (2×) and 72.6% | viability, T/C (compound 3.16 µM) 101% and 73.1% and 87.7% | viability, T/C (compound 10 µM) 99.3% and 58.1% and 60.9%
> 10 µM: IC50 (curve of compound)
